Results from ChEMBL document CHEMBL5365456, “Isolation and biological activity of natural chalcones based on antibacterial mechanism classification” (Bioorg Med Chem, 2023).
Values after ≈ are worked out from the molar mass of the structure shown.

What was measured:
[1] = Inhibition of Micrococcus luteus IFO 3333 membrane NADH oxidase by absorbance based assay; assay type: cell membranes
[2] = Inhibition of Escherichia coli HUT 215 membrane NADH oxidase by absorbance based assay; assay type: cell membranes
[3] = Inhibition of Staphylococcus aureus IFO 3007 membrane NADH oxidase by absorbance based assay; assay type: cell membranes
[4] = system: Escherichia coli; assay: Antibacterial activity against Escherichia coli HUT 215 assessed bacterial growth inhibition by two-fold serial broth dilution method; assay type: functional
[5] = system: Bacillus subtilis; assay: Antibacterial activity against Bacillus subtilis IFO 3060 assessed bacterial growth inhibition by two-fold serial broth dilution method; assay type: functional
[6] = system: Staphylococcus aureus; assay: Antibacterial activity against Staphylococcus aureus IFO 3007 assessed bacterial growth inhibition by two-fold serial broth dilution method; assay type: functional
[7] = system: Pseudomonas aeruginosa; assay: Antibacterial activity against Pseudomonas aeruginosa JCM 2776 assessed bacterial growth inhibition by two-fold serial broth dilution method; assay type: functional
[8] = Inhibition of Pseudomonas aeruginosa JCM 2776 membrane NADH oxidase by absorbance based assay; assay type: cell membranes
[9] = system: Micrococcus luteus; assay: Antibacterial activity against Micrococcus luteus IFO 3333 assessed bacterial growth inhibition by two-fold serial broth dilution method; assay type: functional
[10] = Inhibition of Micrococcus luteus IFO 3333 membrane NADH-cytochrome c reductase by absorbance based assay; assay type: cell membranes
[11] = system: Staphylococcus aureus; assay: Antibacterial activity against Staphylococcus aureus MSSA1 assessed bacterial growth inhibition by CLSI-based broth microdilution method; assay type: functional
[12] = Haemolytic activity in rabbit Erythrocyte infected with Staphylococcus aureus ATCC 29213 assessed as inhibition of alpha-toxin production at 0.125 ug/ml incubated for 20 mins; assay type: toxicity, cell-based, Oryctolagus cuniculus; settings: at 0.125 µg/mL
[13] = system: Staphylococcus aureus; assay: Antibacterial activity against Staphylococcus aureus ATCC 10832 assessed as bacterial growth inhibition incubated for 24 hrs by CLSI-based broth microdilution assay; assay type: functional
[14] = system: Staphylococcus aureus; assay: Antibacterial activity against Staphylococcus aureus ATCC 29213 assessed as bacterial growth inhibition incubated for 24 hrs by CLSI-based broth microdilution assay; assay type: functional
[15] = Haemolytic activity in rabbit Erythrocyte infected with Staphylococcus aureus ATCC 10832 assessed as inhibition of alpha-toxin production at 0.125 ug/ml incubated for 20 mins; assay type: toxicity, cell-based, Oryctolagus cuniculus; settings: at 0.125 µg/mL
[16] = Inhibition of His-tagged Escherichia coli ANS1 FabG using acetoacetyl-CoA as substrate by spectrometric analysis
[17] = system: Escherichia coli; assay: Antibacterial activity against Escherichia coli ANS1 assessed as bacterial growth inhibition incubated for 20 hrs by broth microdilution method; assay type: functional
[18] = Inhibition of FAS2 in Mycobacterium smegmatis mc2 155 transfected with pVV16 vector by BCA assay; parameters: species or system Mycolicibacterium smegmatis
[19] = Inhibition of His-tagged Escherichia coli ANS1 Fab1 using trans-2-octanoyl-N-acetylcysteamine as substrate by spectrometric analysis
[20] = Inhibition of FAS2 in Mycobacterium smegmatis mc2 155 transfected with pVV16 vector expressing Rv0636 by BCA assay; parameters: species or system Mycolicibacterium smegmatis
[21] = system: Staphylococcus aureus; assay: Antibacterial activity against Staphylococcus aureus ATCC 29213 assessed bacterial growth inhibition by CLSI-based broth microdilution method; assay type: functional
[22] = system: Enterococcus faecalis; assay: Antibiofilm activity against Enterococcus faecalis 16C106 at 4.23 ug/ml incubated for 24 hrs by crystal violet staining based assay relative to control; assay type: functional
[23] = Hemolytic activity in human RBC infected with Streptococcus suis 05ZYH33 at 1.5 ug/ml measured after 1 hr by microplate reader method; assay type: toxicity, cell-based; settings: erythrocyte, at 1.5 µg/mL
[24] = system: Streptococcus suis; assay: Antibiofilm activity against Streptococcus suis 05ZYH33 assessed as inhibition of biofilm formation at 4 ug/ml incubated for 18 to 24 hrs by crystal violet staining based assay relative to control; assay type: functional; settings: time 18-24 hrs
[25] = system: Candida albicans; assay: Antibiofilm activity against Candida albicans LAM-1 at 2 ug/ml incubated for 24 hrs by crystal violet staining based assay relative to control; assay type: functional
[26] = Haemolytic activity in rabbit Erythrocyte infected with Staphylococcus aureus ATCC 29213 assessed as inhibition of alpha-toxin production at 2 ug/ml incubated for 15 mins; assay type: toxicity, cell-based, Oryctolagus cuniculus; settings: 0.25 h, at 2 µg/mL
[27] = Haemolytic activity in rabbit Erythrocyte infected with methicillin-Resistant Staphylococcus aureus 2985 assessed as inhibition of alpha-toxin production at 2 ug/ml incubated for 15 mins; assay type: toxicity, cell-based, Oryctolagus cuniculus; settings: 0.25 h, at 2 µg/mL
[28] = system: Staphylococcus aureus; assay: Antibiofilm activity against Staphylococcus aureus ATCC 29213 at 128 ug/ml relative to control; assay type: functional
[29] = system: Staphylococcus aureus; assay: Antibiofilm activity against Staphylococcus aureus ATCC 29213 at 16 ug/ml relative to control; assay type: functional
[30] = system: Candida albicans; assay: Antifungal activity against Candida albicans LAM-1 assessed as fungal growth inhibition incubated for 24 hrs; assay type: functional
[31] = system: Streptococcus suis; assay: Antibiofilm activity against Streptococcus suis 05ZYH33 assessed as inhibition of biofilm formation at 3 ug/ml incubated for 18 to 24 hrs by crystal violet staining based assay relative to control; assay type: functional; settings: time 18-24 hrs
[32] = system: Enterococcus faecalis; assay: Antibiofilm activity against Enterococcus faecalis 16C51 at 4.23 ug/ml incubated for 24 hrs by crystal violet staining based assay relative to control; assay type: functional
[33] = system: Candida albicans; assay: Antibiofilm activity against Candida albicans LAM-1 at 0.2 ug/ml incubated for 24 hrs by crystal violet staining based assay; assay type: functional
[34] = system: Rhizomucor pusillus; assay: Antibacterial activity against Rhizomucor pusillus HUT 1185 assessed bacterial growth inhibition by two-fold serial broth dilution method; assay type: functional
[35] = system: Staphylococcus aureus; assay: Antibacterial activity against methicillin-Sensitive Staphylococcus aureus ATCC 29213 assessed as bacterial growth inhibition by CLSI-based broth microdilution method; assay type: functional
[36] = system: Enterococcus faecalis; assay: Antibacterial activity against Enterococcus faecalis 16C51 assessed as bacterial growth inhibition by CLSI based broth microdilution assay; assay type: functional
[37] = system: Streptococcus suis; assay: Antibacterial activity against Streptococcus suis 05ZYH33 assessed as bacterial growth inhibition incubated for 24 hrs; assay type: functional
[38] = system: Staphylococcus aureus; assay: Antibacterial activity against Staphylococcus aureus ATCC 29213 assessed as bacterial growth inhibition incubated for 24 hrs by CLSI-based assay; assay type: functional
[39] = system: Staphylococcus aureus; assay: Antibacterial activity against methicillin-Resistant Staphylococcus aureus 2985 assessed as bacterial growth inhibition by CLSI-based broth microdilution method; assay type: functional
[40] = Hemolytic activity in human RBC infected with Streptococcus suis 05ZYH33 at 2 ug/ml measured after 1 hr by microplate reader method; assay type: toxicity, cell-based; settings: erythrocyte, at 2 µg/mL
[41] = system: Candida albicans; assay: Antibiofilm activity against Candida albicans ATCC 28366 at 0.2 ug/ml incubated for 24 hrs by crystal violet staining based assay relative to control; assay type: functional
[42] = system: Enterococcus faecalis; assay: Antibiofilm activity against Enterococcus faecalis 16C106 at 2.115 ug/ml incubated for 24 hrs by crystal violet staining based assay relative to control; assay type: functional
[43] = system: Candida albicans; assay: Antifungal activity against Candida albicans ATCC 28366 assessed as fungal growth inhibition incubated for 24 hrs; assay type: functional
[44] = system: Candida albicans; assay: Inhibition of Candida albicans ATCC 28366 hyphal transition at 100 ug/ml incubated upto 4 hrs relative to control; assay type: functional
[45] = system: Enterococcus faecalis; assay: Antibacterial activity against Enterococcus faecalis 16C106 assessed as bacterial growth inhibition by CLSI based broth microdilution assay; assay type: functional
[46] = system: Candida albicans; assay: Inhibition of Candida albicans LAM-1 hyphal transition at 100 ug/ml incubated upto 4 hrs relative to control; assay type: functional
[47] = system: Candida albicans; assay: Antibiofilm activity against Candida albicans ATCC 28366 at 2 ug/ml incubated for 24 hrs by crystal violet staining based assay relative to control; assay type: functional
[48] = system: Enterococcus faecalis; assay: Antibiofilm activity against Enterococcus faecalis 16C51 at 2.115 ug/ml incubated for 24 hrs by crystal violet staining based assay relative to control; assay type: functional

COc1c(/C=C/C(=O)c2ccc(O)cc2)ccc(O)c1CC=C(C)C
IC50 [1]: 3 µM
IC50 [2]: 7.4 µM
IC50 [3]: 23.4 µM
MIC [4]: > 100 µg/mL
MIC [5]: 12.5 µg/mL (≈ 36.9 µM)
MIC [6]: 6.25 µg/mL (≈ 18.5 µM)
MIC [7]: > 100 µg/mL
IC50 [8]: 13.9 µM
MIC [9]: 6.25 µg/mL (≈ 18.5 µM)
IC50 [10]: 29.6 µM

COc1c(/C=C/C(=O)c2ccc(O)cc2)ccc(O)c1O
MIC [5]: 10 µg/mL (≈ 34.9 µM)
MIC [6]: 100 µg/mL (≈ 349 µM)
MIC [9]: 50 µg/mL (≈ 175 µM)

CC1(C)C=Cc2c(ccc(C(=O)/C=C/c3ccc(O)cc3)c2O)O1
MIC [11]: 4 µg/mL (≈ 12.4 µM)

C=C(C)[C@@H](C)c1cc(/C=C/C(=O)c2ccc(O)cc2)c(OC)cc1O
inhibition (INH) [12]: 33%
MIC [13]: 2 µg/mL (≈ 5.91 µM)
MIC [14]: 2 µg/mL (≈ 5.91 µM)
inhibition (INH) [15]: 58%

O=C(/C=C/c1ccc(O)c(O)c1)c1ccc(O)cc1O [BUTEIN]
IC50 [16]: 10 µM
MIC [17]: 32 µM (≈ 8.71 µg/mL)
IC50 [18]: 22 µg/mL (≈ 80.8 µM)
IC50 [19]: 30 µM
IC50 [20]: 30 µg/mL (≈ 110 µM)

C=CC(C)(C)c1cc(/C=C/C(=O)c2ccc(O)cc2)c(OC)cc1O [LICOAGROCHACONE A]
MIC [21]: 4 µg/mL (≈ 11.8 µM)
inhibition at 4.23 µg/mL [22]: 85%
inhibition (INH) [23]: 63%
IC50 [1]: 6.2 µM
inhibition at 4 µg/mL [24]: 60%
inhibition at 2 µg/mL [25]: 76%
IC50 [2]: 9.5 µM
inhibition (INH) [26]: 95%
inhibition (INH) [27]: 93%
inhibition at 128 µg/mL [28]: 60%
inhibition at 16 µg/mL [29]: 60%
MIC [30]: 12.5 µg/mL (≈ 36.9 µM)
IC50 [3]: 8 µM
MIC [4]: > 100 µg/mL
inhibition at 3 µg/mL [31]: 30%
MIC [5]: 3.13 µg/mL (≈ 9.25 µM)
inhibition at 4.23 µg/mL [32]: 80%
MIC [6]: 1.56 µg/mL (≈ 4.61 µM)
inhibition at 0.2 µg/mL [33]: 35%
MIC [34]: 12.5 µg/mL (≈ 36.9 µM)
MIC [35]: 4 µg/mL (≈ 11.8 µM)
MIC [36]: 8.46 µg/mL (≈ 25 µM)
MIC [37]: 4 µg/mL (≈ 11.8 µM)
MIC [38]: 2 µg/mL (≈ 5.91 µM)
MIC [39]: 4 µg/mL (≈ 11.8 µM)
inhibition (INH) [40]: 81%
MIC [7]: > 100 µg/mL
IC50 [8]: 18.9 µM
inhibition at 0.2 µg/mL [41]: 59%
inhibition at 2.115 µg/mL [42]: 50%
MIC [43]: 6.25 µg/mL (≈ 18.5 µM)
inhibition at 100 µg/mL [44]: 100%
MIC [45]: 8.46 µg/mL (≈ 25 µM)
inhibition at 100 µg/mL [46]: 79%
MIC [9]: 1.56 µg/mL (≈ 4.61 µM)
inhibition at 2 µg/mL [47]: 81%
IC50 [10]: 14.8 µM
inhibition at 2.115 µg/mL [48]: 50%

COc1c(/C=C/C(=O)c2ccc(O)c(CC=C(C)C)c2)ccc(O)c1O [LICOCHALCONE D]
MIC [5]: 50 µg/mL (≈ 141 µM)
MIC [6]: 50 µg/mL (≈ 141 µM)
MIC [9]: 50 µg/mL (≈ 141 µM)
